According to patent publication US10155751B2, “Pyrazolyl-substituted heteroaryls and their use as medicaments” (Boehringer Ingelheim International GmbH, priority 2015, dated 2018):
pIC50: −log10 of the molar value.

Legend:
[1] = biological target: Recombinant human SYK (amino acids 342-635), GST-SYK kinase fusion protein (Homo sapiens (Human), UniProt P43405); assay: SYK kinase inhibition test (Kinase Glo luminescence); format: biochemical; conditions: read-out: SYK inhibition IC50-value (chapter 5.1)
Description: The catalytic activity of the GST-SYK kinase fusion protein was determined using the Kinase Glo® Luminescence Kinase test (Promega; V6712). In this homogeneous test the amount of ATP remaining after the kinase reaction is quantified by a luciferin-luciferase reaction using luminescence. The luminescence signal obtained correlates with the amount of ATP still present and thus correlates inversely with the activity of the kinase.
The test compounds were dissolved in 100% DMSO at a concentration of 10 mM and diluted in DMSO to a concentration of 1 mM. Serial Dilution is done in 100% DMSO. All further dilutions of the substances were carried out with test buffer (25 mM HEPES pH7.5; 25 mM MgCl2; 5 mM MnCl2; 50 mM KCl; 0.2% HSA; 0.01% CHAPS; 100 μM Na3VO4; 0.5 mM DTT). Dilution steps and concentration range were adapted according to need. 7 μl aliquots of these dilutions were transferred into a 384-well Optiplate (Perkin Elmer, #6007290). GST-SYK was diluted to 12 nM in the test buffer and 5 μl of this dilution were used in the kinase test (final concentration of SYK=4 nM in a total volume of 15 μl). After 15 minutes incubation at room temperature 3 μl of a mixture of 750 nM ATP and 100 μg/ml poly (L-Glutamic acid L-Tyrosine 4:1), Fluka #81357) in test buffer were added to each well and the incubation was continued for a further 60 minutes at room temperature.
(§1) Positive controls are the reaction mixtures that contain no test substance; negative controls (blanks) are reaction mixtures that contain no kinase.
After 60 minutes, 10 μl Kinase-Glo® solution (Promega, Cat. # V6712) (heated to room temperature) were added to each well and incubation was continued for a further 15 minutes. The plates were read in Envision Luminescence Reader (Perkin-Elmer).
(§2) The output file of the reader is a csv file that contains the well number and measured relative light units (RLU). For data evaluation and calculation, the measurement of the negative control was set as 100% ctrl and the measurement of the positive control was set as 0% ctrl. Based on this values the % value for the measurement of each substance concentration was calculated using an Assay Explorer software (Accelrys). Normally, the % ctrl values calculated are between 0% and 100% values but may also occur outside these limits in individual cases based on variability or compound characteristics. The IC50-values were calculated from the % ctrl values using Assay Explorer software. Calculation: [y=(a−d)/(1+(x/c)^b)+d] a=low value, d=high value; x=conc M; c=IC50 M; b=hill; y=% ctrl.
Satisfying SYK inhibitory capacities are represented by an IC50(SYK)-Value measured by this assay of <10 nMol.

[2] = biological target: Recombinant human Aurora B (amino acids 1-344) (Homo sapiens (Human), UniProt Q96GD4); assay: Aurora B kinase test (ADP Glo); format: biochemical; conditions: for pIC50: read-out: AURB inhibition IC50-value (chapter 5.3)
Description: The activity of the Aurora B kinase protein was determined using the ADP Glo® Luminescence Kinase test (Promega; V9103X). In this homogeneous test the amount of ADP remaining after the kinase reaction is quantified by a luciferin-luciferase reaction using luminescence. The luminescence signal obtained correlates with the amount of ADP still present and thus correlates with the activity of the protein kinase.
The test compounds were dissolved in 100% DMSO at a concentration of 10 mM and diluted in DMSO to a concentration of 5 mM. Serial Dilution is done in 1:10 steps in 100% DMSO. All further dilutions of the substances were carried out with test buffer (50 mM Hepes, pH 7.5, 10 mM MgCl2, 1 mM EGTA, 60 μM Ultra Pure ATP, 0.01% Brij35, 0.1% BSA, 5 mM 8-Glycerophosphate) until a concentration was reached which was 2.5 times above the final test concentration (final concentration of the compounds: 50 μM to 0.005 nM). 4 μl aliquots of these dilutions were transferred into a 384-well Optiplate (Perkin Elmer, #6007290). His-Aurora B was diluted to 125 nM in the test buffer and 4 μl of this dilution were used in the kinase test (final concentration of Aurora B=50 nM in a total volume of 10 μl). After 15 minutes incubation at room temperature 2 μl of 250 μM substrate ([[…]]; University of Dundee) in test buffer were added to each well and the incubation was continued for a further 60 minutes at room temperature.
as §1
After 60 minutes, 10 μl ADP-Glo® solution (ADP-Glo Reagent #V912B Promega) (heated to room temperature) were added to each well and incubation was continued for a further 40. minutes. Then 20 μl Kinase detection mix (Detection Buffer #V913B Promega; Kinase Detection Substrate #V914B Promega) were added and incubated for 40 minutes at room temperature. The plates were read in Envision Luminescence Reader (Perkin-Elmer).
as §2, with “measured RLU.” for “measured relative light units (RLU).”, “as 0%” for “as 100%”, “as 100%” for “as 0%”, “concentration can be” for “concentration was”, “software (e.g. Accelrys).” for “software (Accelrys).”, “Calculation: [y=(a−d)/(1+(x/c)^b)+d],” for “Calculation: [y=(a−d)/(1+(x/c)^b)+d]”

Recombinant human Aurora B (amino acids 1-344), sequence (Q96GD4 whole entry, the tested form may be a part): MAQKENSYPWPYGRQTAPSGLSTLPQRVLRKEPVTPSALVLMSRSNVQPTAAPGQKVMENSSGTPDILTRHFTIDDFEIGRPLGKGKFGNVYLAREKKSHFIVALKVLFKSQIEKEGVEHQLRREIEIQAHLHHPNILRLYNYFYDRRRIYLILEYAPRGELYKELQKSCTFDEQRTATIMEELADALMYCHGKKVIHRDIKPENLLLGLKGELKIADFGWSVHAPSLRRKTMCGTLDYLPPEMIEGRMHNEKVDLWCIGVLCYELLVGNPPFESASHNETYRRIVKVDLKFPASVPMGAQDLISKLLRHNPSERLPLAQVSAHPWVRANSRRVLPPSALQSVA

Question: `C[C@@H](Oc1cc(-c2cnn(C3CCC3)c2)cc2nn(C)c(F)c12)[C@H]1CNC(=O)C1` [Example 1, (R)-4-{(R)-1-[6-(1-Cyclobutyl-1H-pyrazol-4-yl)-3-fluoro-2-methyl-2H-indazol-4-yloxy]-ethyl}-pyrrolidin-2-one] was tested. Which pIC50 [1] did it give?
Answer: 9.00

Question: And the “selectivity ratio IC50(AURB)/IC50(SYK)” value [2]?
Answer: 34800

Question: And the pIC50 [2]?
Answer: 4.46

Question: `CC(C)n1cc(-c2cc(O[C@H](C)[C@H]3CNC(=O)C3)c3c(F)n(C)nc3c2)cn1` [Example 2, (R)-4-{(R)-1-[3-Fluoro-6-(1-isopropyl-1H-pyrazol-4-yl)-2-methyl-2H-indazol-4-yloxy]-ethyl}-pyrrolidin-2-one] was tested. Which pIC50 [1] did it give?
Answer: 8.89

Question: What about the “selectivity ratio IC50(AURB)/IC50(SYK)” value [2] of the same compound?
Answer: 23955

Question: And the pIC50 [2]?
Answer: 4.51

Question: With `Cc1c2c(O[C@H](C)[C@H]3CNC(=O)O3)nc(-c3cnn(C(C)(C)C)c3)cc2nn1C` [Example 3, (R)-5-{(R)-1-[6-(1-tert-Butyl-1H-pyrazol-4-yl)-2,3-dimethyl-2H-pyrazolo[4,3-c]pyridin-4-yloxy]-ethyl}-oxazolidin-2-one] as the compound, how does the pIC50 [1] read?
Answer: 8.70

Question: What about the “selectivity ratio IC50(AURB)/IC50(SYK)” value [2] of the same compound?
Answer: 15731

Question: And the pIC50 [2]?
Answer: 4.50

Question: With `Cc1c2c(O[C@H](C)[C@H]3CNC(=O)C3)nc(-c3c[nH]nc3C(C)(C)C)cc2nn1C` [Example 4, (R)-4-{(R)-1-[6-(3-tert-Butyl-1H-pyrazol-4-yl)-2,3-dimeth-yl-2H-pyrazolo[4,3-c]pyridin-4-yloxy]-ethyl}-pyrrolidin-2-one] as the compound, how does the pIC50 [1] read?
Answer: 8.66

Question: And the “selectivity ratio IC50(AURB)/IC50(SYK)” value [2]?
Answer: 29636

Question: And the pIC50 [2]?
Answer: 4.19

Question: How did the pIC50 [1] turn out when `C[C@@H](Oc1cc(-c2cnn(C3CC3)c2)cc2nn(C)c(F)c12)[C@H]1CNC(=O)C1` [Example 5, (R)-4-{(R)-1-[6-(1-Cycloprop-yl-1H-pyrazol-4-yl)-3-fluoro-2-methyl-2H-indazol-4-yloxy]-ethyl}-pyrrolidin-2-one] was run?
Answer: 8.48

Question: What about the “selectivity ratio IC50(AURB)/IC50(SYK)” value [2] of the same compound?
Answer: 15152

Question: What about the pIC50 [2] of the same compound?
Answer: 4.30

Question: With `C[C@@H](Oc1cc(-c2cnn(CC3CC3)c2)cc2nn(C)c(F)c12)[C@H]1CNC(=O)C1` [Example 6, (R)-4-{(R)-1-[6-(1-Cycloprop-ylmethyl-1H-pyrazol-4-yl)-3-fluoro-2-methyl-2H-indazol-4-yloxy]-ethyl}-pyrrolidin-2-one] as the compound, how does the pIC50 [1] read?
Answer: 8.59

Question: What about the “selectivity ratio IC50(AURB)/IC50(SYK)” value [2] of the same compound?
Answer: 13115

Question: And the pIC50 [2]?
Answer: 4.47

Question: Which results are given for `C[C@@H](Oc1cc(-c2cnn(C3CCC(F)(F)C3)c2)cc2nn(C)c(F)c12)[C@H]1CNC(=O)C1` (stereo partly drawn) [Example 7]?
Answer: pIC50 [1]: 8.89; selectivity ratio IC50(AURB)/IC50(SYK) [2]: 20154; pIC50 [2]: 4.58

Question: What does the source list for `Cc1c2c(O[C@H](C)[C@H]3CNC(=O)C3)cc(-c3cnn(CC4CC4)c3)cc2nn1C` [Example 8, (R)-4-{(R)-1-[6-(1-Cyclopropylmethyl-1H-pyrazol-4-yl)-2,3-dimethyl-2H-indazol-4-yloxy]-ethyl}-pyrrolidin-2-one]?
Answer: pIC50 [1]: 8.85; selectivity ratio IC50(AURB)/IC50(SYK) [2]: 15080; pIC50 [2]: 4.68

Question: With `Cc1c2c(O[C@H](C)[C@H]3CNC(=O)C3)cc(-c3cnn([C@@H]4CCOC(C)(C)C4)c3)cc2nn1C` [Example 9, (R)-4-((R)-1-{6-[1-((R)-2,2-Dimethyl-tetrahydro-pyran-4-yl)-1H-pyrazol-4-yl]-2,3-dimethyl-2H-indazol-4-yloxy}-ethyl)-pyrrolidin-2-one] as the compound, how does the pIC50 [1] read?
Answer: 8.96

Question: What about the “selectivity ratio IC50(AURB)/IC50(SYK)” value [2] of the same compound?
Answer: 21219

Question: And the pIC50 [2]?
Answer: 4.63

Question: What does the source list for `Cc1c2c(O[C@H](C)[C@H]3CNC(=O)C3)cc(-c3cnn([C@H]4CO[C@@H]5CCCO[C@@H]54)c3)cc2nn1C` [Example 10, 4-(1-{6-[(R)-(3S,3aR,7aR)-1-(Hexahydro-furo[3,2-b]pyran-3-yl)-1H-pyrazol-4-yl]-2,3-dimethyl-2H-indazol-4-yloxy}-ethyl)-pyrrolidin-2-one]?
Answer: pIC50 [1]: 8.48; selectivity ratio IC50(AURB)/IC50(SYK) [2]: 10312; pIC50 [2]: 4.47

Question: How did the pIC50 [1] turn out when `Cc1c2c(O[C@H](C)[C@H]3CNC(=O)C3)cc(-c3cnn(CCF)c3)cc2nn1C` [Example 11, (R)-4-((R)-1-{6-[1-(2-Fluoro-ethyl)-1H-pyrazol-4-yl]-2,3-dimethyl-2H-indazol-4-yloxy}-ethyl)-pyrrolidin-2-one] was run?
Answer: 8.82

Question: What about the “selectivity ratio IC50(AURB)/IC50(SYK)” value [2] of the same compound?
Answer: 20800

Question: What about the pIC50 [2] of the same compound?
Answer: 4.51

Question: What does the source list for `C[C@@H](Oc1cc(-c2cnn(CCC(F)(F)F)c2)cc2nn(C)c(F)c12)[C@H]1CNC(=O)C1` [Example 12, (R)-4-((R)-1-{3-Fluoro-2-methyl-6-[1-(3,3,3-trifluoro-propyl)-1H-pyrazol-4-yl]-2H-indazol-4-yloxy}-ethyl)-pyrrolidin-2-one]?
Answer: pIC50 [1]: 8.54; selectivity ratio IC50(AURB)/IC50(SYK) [2]: 10207; pIC50 [2]: 4.53

Question: `Cc1c2c(O[C@H](C)[C@H]3CNC(=O)C3)cc(-c3cnn(C(C)(C)C)c3)cc2nn1C` [Example 13, (R)-4-{(R)-1-[6-(1-tert-Butyl-1H-pyrazol-4-yl)-2,3-dimethyl-2H-indazol-4-yloxy]-ethyl}-pyrrolidin-2-one] was tested. Which pIC50 [1] did it give?
Answer: 9.05

Question: And the “selectivity ratio IC50(AURB)/IC50(SYK)” value [2]?
Answer: 39982

Question: What about the pIC50 [2] of the same compound?
Answer: 4.44

Question: How did the pIC50 [1] turn out when `C[C@@H](Oc1cc(-c2cnn(C3CC(C)(C)OC3(C)C)c2)cc2nn(C)c(F)c12)[C@H]1CNC(=O)C1` (stereo partly drawn) [Example 14, (R)-4-((R)-1-{3-Fluoro-2-methyl-6-[1-(2,2,5,5-tetramethyl-tetrahydro-furan-3-yl)-1H-pyrazol-4-yl]-2H-indazol-4-yloxy}-ethyl)-pyrrolidin-2-one] was run?
Answer: 8.49

Question: And the “selectivity ratio IC50(AURB)/IC50(SYK)” value [2]?
Answer: 15625

Question: What about the pIC50 [2] of the same compound?
Answer: 4.30

Question: What does the source list for `Cc1c2c(O[C@H](C)[C@H]3CNC(=O)C3)cc(-c3cnn(C4CC(C)(C)OC4(C)C)c3)cc2nn1C` (stereo partly drawn) [Example 16, (R)-4-((R)-1-{2,3-Dimethyl-6-[1-(2,2,5,5-tetramethyl-tetrahydro-furan-3-yl)-1H-pyrazol-4-yl]2H-indazol-4-yloxy}-ethyl)-pyrrolidin-2-one]?
Answer: pIC50 [1]: 8.51; selectivity ratio IC50(AURB)/IC50(SYK) [2]: 14323; pIC50 [2]: 4.35

Question: With `Cc1c2c(O[C@H](C)[C@H]3CNC(=O)C3)cc(-c3cnn(C(C)(C)C#N)c3)cc2nn1C` [Example 17, 2-(4-{2,3-Dimethyl-4-[(R)-1-((R)-5-oxo-pyrrolidin-3-yl)-ethoxy]-2H-indazol-6-yl}-pyrazol-1-yl)-2-methyl-propionitrile] as the compound, how does the pIC50 [1] read?
Answer: 8.54

Question: And the “selectivity ratio IC50(AURB)/IC50(SYK)” value [2]?
Answer: 17241

Question: And the pIC50 [2]?
Answer: 4.30

Question: What does the source list for `Cc1c2c(O[C@H](C)[C@H]3CNC(=O)C3)cc(-c3cnn(C(C)C)c3)cc2nn1C` [Example 18, (R)-4-{(R)-1-[6-(1-Isopropyl-1H-pyrazol-4-yl)-2,3-dimethyl-2H-indazol-4-yloxy]-ethyl}-pyrrolidin-2-one]?
Answer: pIC50 [1]: 8.96; selectivity ratio IC50(AURB)/IC50(SYK) [2]: 18323; pIC50 [2]: 4.70
